ChEMBL document CHEMBL4814024, “Microwave assisted regioselective synthesis of quinoline appended triazoles as potent anti-tubercular and antifungal agents via copper (I) catalyzed cycloaddition” (Bioorg Med Chem Lett, 2021)
≈ marks a conversion by molar mass, not a printed value.

Experiments:
[1] = test system: Mycobacterium tuberculosis; assay: Antimycobacterial activity against Mycobacterium tuberculosis; format: functional
[2] = test system: Mycobacterium tuberculosis; assay: Antimycobacterial activity against Mycobacterium tuberculosis H37Rv assessed as reduction in bacterial growth incubated for 5 days by MTT assay; format: functional; details: 120 h, time 5 day
[3] = test system: Aspergillus fumigatus; assay: Antifungal activity against Aspergillus fumigatus; format: functional
[4] = test system: Aspergillus niger; assay: Antifungal activity against Aspergillus niger; format: functional
[5] = test system: Candida albicans; assay: Antifungal activity against Candida albicans; format: functional
[6] = test system: Aspergillus flavus; assay: Antifungal activity against Aspergillus flavus; format: functional
[7] = test system: Mycobacterium tuberculosis; assay: Antimycobacterial activity against Mycobacterium tuberculosis H37Rv ATCC 27294 assessed as reduction in bacterial growth by microplate alamar blue assay; format: functional
[8] = test system: HEK293; assay: Cytotoxicity against HEK293 cells by MTT assay; format: cell-based; details: Homo sapiens
[9] = Selectivity index, ratio of IC50 for cytotoxicity against human HEK293 cells to MIC for antimycobacterial activity against Mycobacterium tuberculosis H37Rv ATCC 27294; format: toxicity, cell-based; details: read-out: Selectivity Index

Row | SMILES | MIC [1] [µg/mL] | MIC [2] [µg/mL] | MIC [3] [µg/mL] | MIC [4] [µg/mL] | MIC [5] [µg/mL] | MIC [6] [µg/mL] | MIC [7] [µg/mL] | IC50 [8] [µg/mL] | selectivity ratio [9]
1 | O=C(N/N=C/c1cn(-c2ccc(Cl)cc2)nn1)c1ccncc1 | 0.62 (≈ 1.9 µM) |  |  |  |  |  |  |  | 
2 | CCCCCCCCc1cn(CC(=O)OCC)nn1 |  | 0.5 (≈ 1.87 µM) |  |  |  |  |  |  | 
3 | O=c1n(Cc2cn(Cc3cc4cc(Cl)ccc4nc3Cl)nn2)cnn1-c1ccccc1 |  |  | 3.12 (≈ 6.9 µM) | 0.2 (≈ 0.442 µM) | 0.2 (≈ 0.442 µM) | 0.2 (≈ 0.442 µM) | 12.5 (≈ 27.6 µM) | 459 (≈ 1010 µM) | 36.7
4 | O=c1n(Cc2cn(Cc3cc4ccc(Cl)cc4nc3Cl)nn2)cnn1-c1ccccc1 |  |  | 3.12 (≈ 6.9 µM) | 0.2 (≈ 0.442 µM) | 0.2 (≈ 0.442 µM) | 0.2 (≈ 0.442 µM) | 25 (≈ 55.3 µM) | 869 (≈ 1920 µM) | 34.8
5 | COc1ccc2cc(Cn3cc(Cn4cnn(-c5ccccc5)c4=O)nn3)c(Cl)nc2c1 |  |  | 3.12 (≈ 6.97 µM) | 0.2 (≈ 0.447 µM) | 0.2 (≈ 0.447 µM) | 0.2 (≈ 0.447 µM) | 1.6 (≈ 3.57 µM) | 1010 (≈ 2250 µM) | 630
6 | C[C@@H](N1CCN(c2ccc(-n3cnnn3)cc2)C1=O)[C@](O)(Cn1cncn1)c1ccc(F)cc1F |  |  | 1 (≈ 2.08 µM) |  |  |  |  |  | 
7 | COc1ccc(-n2ncn(Cc3cn(Cc4cc5cccc(C)c5nc4Cl)nn3)c2=O)cc1 |  |  | 3.12 (≈ 6.75 µM) | 0.2 (≈ 0.433 µM) | 0.2 (≈ 0.433 µM) | 0.2 (≈ 0.433 µM) | 1.6 (≈ 3.46 µM) | 586 (≈ 1270 µM) | 366
8 | COc1ccc(-n2ncn(Cc3cn(Cc4cc5cc(Cl)ccc5nc4Cl)nn3)c2=O)cc1 |  |  | 3.12 (≈ 6.47 µM) | 0.2 (≈ 0.415 µM) | 0.2 (≈ 0.415 µM) | 0.2 (≈ 0.415 µM) | 3.12 (≈ 6.47 µM) | 1060 (≈ 2200 µM) | 340
9 | Cc1cccc2cc(Cn3cc(Cn4cnn(-c5ccccc5)c4=O)nn3)c(Cl)nc12 |  |  | 3.12 (≈ 7.22 µM) | 0.2 (≈ 0.463 µM) | 0.2 (≈ 0.463 µM) | 0.2 (≈ 0.463 µM) | 1.6 (≈ 3.7 µM) | 729 (≈ 1690 µM) | 234
10 | O=c1n(Cc2cn(Cc3cc4ccccc4nc3Cl)nn2)cnn1-c1ccccc1 |  |  | 3.12 (≈ 7.47 µM) | 0.2 (≈ 0.479 µM) | 0.2 (≈ 0.479 µM) | 0.2 (≈ 0.479 µM) | 25 (≈ 59.8 µM) | 655 (≈ 1570 µM) | 26.2
11 | COc1ccc(-n2ncn(Cc3cn(Cc4cc5ccc(Cl)cc5nc4Cl)nn3)c2=O)cc1 |  |  | 3.12 (≈ 6.47 µM) | 0.2 (≈ 0.415 µM) | 0.2 (≈ 0.415 µM) | 0.2 (≈ 0.415 µM) | 3.12 (≈ 6.47 µM) | 1460 (≈ 3040 µM) | 470
12 | COc1ccc(-n2ncn(Cc3cn(Cc4cc5cc(C)ccc5nc4Cl)nn3)c2=O)cc1 |  |  | 3.12 (≈ 6.75 µM) | 0.2 (≈ 0.433 µM) | 0.2 (≈ 0.433 µM) | 0.2 (≈ 0.433 µM) | 1.6 (≈ 3.46 µM) | 615 (≈ 1330 µM) | 384
13 | COc1ccc(-n2ncn(Cc3cn(Cc4cc5ccccc5nc4Cl)nn3)c2=O)cc1 |  |  | 3.12 (≈ 6.97 µM) | 0.2 (≈ 0.447 µM) | 0.2 (≈ 0.447 µM) | 0.2 (≈ 0.447 µM) | 12.5 (≈ 27.9 µM) | 958 (≈ 2140 µM) | 76.7
14 | Cc1ccc2nc(Cl)c(Cn3cc(Cn4cnn(-c5ccccc5)c4=O)nn3)cc2c1 |  |  | 3.12 (≈ 7.22 µM) | 0.2 (≈ 0.463 µM) | 0.2 (≈ 0.463 µM) | 0.2 (≈ 0.463 µM) | 3.12 (≈ 7.22 µM) | 478 (≈ 1110 µM) | 153
15 | COc1ccc(-n2ncn(Cc3cn(Cc4cc5cc(Br)ccc5nc4Cl)nn3)c2=O)cc1 |  |  | 3.12 (≈ 5.92 µM) | 0.2 (≈ 0.38 µM) | 0.2 (≈ 0.38 µM) | 0.2 (≈ 0.38 µM) | 6.25 (≈ 11.9 µM) | 333 (≈ 632 µM) | 53.2
16 | O=c1n(Cc2cn(Cc3cc4cc(Br)ccc4nc3Cl)nn2)cnn1-c1ccccc1 |  |  | 3.12 (≈ 6.28 µM) | 0.2 (≈ 0.403 µM) | 0.2 (≈ 0.403 µM) | 0.2 (≈ 0.403 µM) | 25 (≈ 50.3 µM) | 1650 (≈ 3330 µM) | 66.1
17 | O=C(O)c1cn(C2CC2)c2cc(N3CCNCC3)c(F)cc2c1=O [CIPROFLOXACIN] |  |  |  |  |  |  | 3.12 (≈ 9.42 µM) |  | 
18 | OC(Cn1cncn1)(Cn1cncn1)c1ccc(F)cc1F [FLUCONAZOLE] |  |  |  | 25 (≈ 81.6 µM) | 25 (≈ 81.6 µM) | 25 (≈ 81.6 µM) |  |  | 
19 | NNC(=O)c1ccncc1 [ISONIAZID] |  |  |  |  |  |  | 1.6 (≈ 11.7 µM) |  | 
20 | NC(=O)c1cnccn1 [PYRAZINAMIDE] |  |  |  |  |  |  | 6.25 (≈ 50.8 µM) |  | 
